From US11484258B2, “Free radical consumption speed information acquisition method and NASH determination method” (KYUSHU UNIVERSITY, NATIONAL UNIVERSITY CORPORATION, priority 2016, dated 2022)
Read-outs that look alike come from different tables or passages of the source.

Columns and labels:
[1] = tested on: homogenate solution of the liver
[2] = tested on: homogenate solution of the liver; assay: redox metabolism of CmP by liver homogenate solution, cytoplasmic and blood components (FIG. 7); conditions: KCN (mitochondrial electron transport chain inhibitor) added
[3] = tested on: liver; assay: in vivo DNP-MRI of the liver after intravenous CmP: redox metabolic rate (free radical consumption speed); set-up: species or system mouse
Description: C57BL6 mice (female, 5 weeks old) were purchased from Charles River Laboratories Japan, Inc. (Yokohama, Japan), and were acclimated for 1 week before starting the experiment. Five mice were housed per cage and were fed with a methionine-choline deficient diet or a normal diet in a room where the temperature and the circadian rhythm were controlled. Each of a methionine-choline deficient diet group (NASH model mouse group) and a normal diet group (normal mouse group) was divided into 5 groups to be subjected to DNP-MRI measurement at 1, 2, 4, 6 and 8 weeks, and blood collection, autopsy and liver tissue collection were performed to evaluate the pathological conditions.
A mouse (NASH model mouse) was anesthetized with isoflurane (4% for introduction, 2% for maintenance) and was fixed, with a pressure-sensitive tape for skin, on a local detector for liver measurement (a surface coil) and a holder with the stomach side faced downward. The body temperature of the mouse was 37±1° C. during the experiment. The mouse was transferred to a DNP-MRI resonance apparatus and the apparatus was set such that the whole liver was a measurement target, and then, CmP (Carbamoyl-PROXYL, redox contrast agent) was intravenously injected into the NASH mode mouse, and the DRI-MRI measurement was started.
TR: 1200 ms; TE: 25 ms; TEPR: 600 ms; number of phase-encoding gradient steps: 64; […]; FOV: 48 mm×48 mm; matrix size: 64×64 (in-plane resolution: 0.75 mm); slice thickness: 30 mm; number of average: 1; and scanning time: 79 s. OMRI data was analyzed by using Image J Software Package (http://rsb.info.nih.gov/ij/).
Besides, the mouse group fed with the normal diet (the normal mouse group) was similarly subjected as a control to the DRI-MRI evaluation.
With respect to the NASH model mouse group, the DNP-MRI measurement was performed 1 week (MCD1), 2 weeks (MCD2), 4 weeks (MCD4), 6 weeks (MCD6) and 8 weeks (MCD8) after feeding the methionine-choline deficient diet (MCD) was started, and the redox metabolic rate of the CmP radical in the liver was calculated.
Also with respect to the normal mouse group, the DNP-MRI measurement was similarly performed 1 week (ND1), 2 weeks (ND2), 4 weeks (ND4), 6 weeks (ND6) and 8 weeks (ND8) after feeding the normal diet was started, and the redox metabolic rate of the CmP radical in the liver was calculated.

## CC1(C)CC(C(N)=O)C(C)(C)N1[O] (stereo not shown) [CmP, Carbamoyl-PROXYL]
[1]
  reaction with a cytoplasmic component or a blood component: minimally reacts
  redox metabolism by a homogenate solution of the liver: redox metabolized
[2]
  redox metabolism by a homogenate solution of the liver: metabolism is stopped
[3]; NASH model mouse compared with normal mouse
  disappearance of the CmP (image intensity in region of interest): significantly slower
[3]; NASH model mouse group (methionine-choline deficient diet), from 1 week (MCD1), versus normal mouse
  redox metabolic rate (disappearing rate) in the liver: significant decrease
[3]; NASH model mouse, epigastrium DNP-MRI images, FIG. 3
  time after administration at which the CmP radical still remained: 13 min
[3]; normal mice (control), epigastrium DNP-MRI images, FIG. 3
  time after administration at which the CmP radical had mostly disappeared: 5.5 min
